Experimental data from ChEMBL document CHEMBL2401728, “An unexpected Dimroth rearrangement leading to annelated thieno[3,2-d][1,2,3]triazolo[1,5-a]pyrimidines with potent antitumor activity” (Eur J Med Chem, 2013).

Legend:
Format in all cases: functional
[1] = test system: NCI-H522; experiment: Cytotoxicity against human NCI-H522 cells after 48 hrs by SRB assay; conditions: NCI-H522, 48 h
[2] = test system: BT-549; experiment: Cytotoxicity against human BT549 cells assessed as cellular growth at 0.01 uM after 48 hrs by SRB assay relative to control
[3] = test system: COLO 205; experiment: Cytotoxicity against human COLO205 cells assessed as cellular growth at 1 uM after 48 hrs by SRB assay relative to control
[4] = test system: IGROV-1; experiment: Cytotoxicity against human IGROV1 cells assessed as cellular growth at 1 uM after 48 hrs by SRB assay relative to control
[5] = test system: UACC-257; experiment: Cytotoxicity against human UACC257 cells assessed as cellular growth at 1 uM after 48 hrs by SRB assay relative to control
[6] = test system: NCI-H226; experiment: Cytotoxicity against human NCI-H226 cells assessed as cellular growth at 0.1 uM after 48 hrs by SRB assay relative to control
[7] = test system: RXF 393; experiment: Cytotoxicity against human RXF393 cells assessed as cellular growth at 0.1 uM after 48 hrs by SRB assay relative to control
[8] = test system: SW-620; experiment: Cytotoxicity against human SW620 cells after 48 hrs by SRB assay; conditions: SW-620, 48 h
[9] = test system: SR; experiment: Cytotoxicity against human SR cells assessed as cellular growth at 100 uM after 48 hrs by SRB assay relative to control
[10] = test system: SF-295; experiment: Cytotoxicity against human SF295 cells assessed as cellular growth at 1 uM after 48 hrs by SRB assay relative to control
[11] = test system: MDA-MB-468; experiment: Cytotoxicity against human MDA-MB-468 cells assessed as cellular growth at 0.1 uM after 48 hrs by SRB assay relative to control
[12] = test system: SW-620; experiment: Cytotoxicity against human SW620 cells assessed as cellular growth at 100 uM after 48 hrs by SRB assay relative to control
[13] = test system: SK-MEL-5; experiment: Cytotoxicity against human SK-MEL-5 cells assessed as cellular growth at 1 uM after 48 hrs by SRB assay relative to control
[14] = test system: IGROV-1; experiment: Cytotoxicity against human IGROV1 cells assessed as cellular growth at 0.01 uM after 48 hrs by SRB assay relative to control
[15] = Cytotoxicity against human EKVX cells assessed as cellular growth at 1 uM after 48 hrs by SRB assay relative to control
[16] = test system: A498; experiment: Cytotoxicity against human A498 cells assessed as cellular growth at 1 uM after 48 hrs by SRB assay relative to control
[17] = test system: MDA-MB-435; experiment: Cytotoxicity against human MDA-MB-435 cells assessed as cellular growth at 100 uM after 48 hrs by SRB assay relative to control
[18] = test system: SW-620; experiment: Cytotoxicity against human SW620 cells assessed as cellular growth at 0.01 uM after 48 hrs by SRB assay relative to control
[19] = test system: U-251; experiment: Cytotoxicity against human U251 cells assessed as cellular growth at 0.01 uM after 48 hrs by SRB assay relative to control
[20] = test system: HOP-92; experiment: Cytotoxicity against human HOP92 cells after 48 hrs by SRB assay; conditions: HOP-92, 48 h
[21] = test system: A549; experiment: Cytotoxicity against human A549 cells assessed as cellular growth at 1 uM after 48 hrs by SRB assay relative to control
[22] = test system: KM12; experiment: Cytotoxicity against human KM12 cells assessed as cellular growth at 100 uM after 48 hrs by SRB assay relative to control
[23] = test system: NCI-H322M; experiment: Cytotoxicity against human NCI-H322M cells assessed as cellular growth at 0.1 uM after 48 hrs by SRB assay relative to control
[24] = test system: RXF 393; experiment: Cytotoxicity against human RXF393 cells assessed as cellular growth at 0.01 uM after 48 hrs by SRB assay relative to control
[25] = test system: MDA-MB-435; experiment: Cytotoxicity against human MDA-MB-435 cells assessed as cellular growth at 0.1 uM after 48 hrs by SRB assay relative to control
[26] = test system: 786-0; experiment: Cytotoxicity against human 786-0 cells assessed as cellular growth at 1 uM after 48 hrs by SRB assay relative to control
[27] = test system: SR; experiment: Cytotoxicity against human SR cells assessed as cellular growth at 0.1 uM after 48 hrs by SRB assay relative to control
[28] = test system: CCRF-CEM; experiment: Cytotoxicity against human CCRF-CEM cells assessed as cellular growth at 1 uM after 48 hrs by SRB assay relative to control
[29] = test system: DU-145; experiment: Cytotoxicity against human DU145 cells after 48 hrs by SRB assay; conditions: DU-145, 48 h
[30] = test system: LOX IMVI; experiment: Cytotoxicity against human LOXIMVI cells after 48 hrs by SRB assay
[31] = test system: SF-539; experiment: Cytotoxicity against human SF539 cells after 48 hrs by SRB assay; conditions: SF-539, 48 h
[32] = test system: HL-60(TB); experiment: Cytotoxicity against human HL-60(TB) cells assessed as cellular growth at 1 uM after 48 hrs by SRB assay relative to control
[33] = test system: Malme-3M; experiment: Cytotoxicity against human MALME-3M cells assessed as cellular growth at 0.01 uM after 48 hrs by SRB assay relative to control
[34] = test system: OVCAR-4; experiment: Cytotoxicity against human OVCAR4 cells after 48 hrs by SRB assay; conditions: OVCAR-4, 48 h
[35] = test system: SK-MEL-28; experiment: Cytotoxicity against human SK-MEL-28 cells after 48 hrs by SRB assay; conditions: SK-MEL-28, 48 h
[36] = read-out: LC50 (the source's name)
[37] = read-out: pLC50 (the source's name) (converted)

Structure (SMILES): CN1CCN(CCCn2c3c(sc4ncccc43)c(=O)n3nnc(-c4ccccc4)c23)CC1
- GI50 ([1]; read-out: GI50): 1.92 µM
- TGI ([1]; read-out: TGI): 3.7 µM
- GI50 ([1]; read-out: pGI50 (converted)): 1.91 µM
- TGI ([1]; read-out: pTGI (converted)): 3.72 µM
- Activity [2]: 99%
- Activity [3]: 86%
- Activity [4]: 94%
- Activity [5]: 97%
- Activity [6]: 80%
- Activity [7]: 93%
- GI50 ([8]; read-out: GI50): 1.68 µM
- CC50 [8, 36]: 8.1 µM
- TGI ([8]; read-out: TGI): 3.69 µM
- GI50 ([8]; read-out: pGI50 (converted)): 1.7 µM
- CC50 [8, 37]: 8.13 µM
- TGI ([8]; read-out: pTGI (converted)): 3.72 µM
- Activity [9]: -42%
- Activity [10]: 103%
- Activity [11]: 95%
- Activity [12]: -75%
- Activity [13]: 93%
- Activity [14]: 102%
- Activity [15]: 95%
- Activity [16]: 76%
- Activity [17]: -83%
- Activity [18]: 96%
- Activity [19]: 97%
- GI50 ([20]; read-out: GI50): 6.31 µM
- CC50 [20, 36]: 70.1 µM
- TGI ([20]; read-out: TGI): 24.3 µM
- GI50 ([20]; read-out: pGI50 (converted)): 6.31 µM
- CC50 [20, 37]: 70.8 µM
- TGI ([20]; read-out: pTGI (converted)): 24.5 µM
- Activity [21]: 95%
- Activity [22]: -83%
- Activity [23]: 80%
- Activity [24]: 100%
- Activity [25]: 99%
- Activity [26]: 100%
- Activity [27]: 104%
- Activity [28]: 77%
- GI50 ([29]; read-out: GI50): 1.85 µM
- CC50 [29, 36]: 7.24 µM
- TGI ([29]; read-out: TGI): 3.66 µM
- GI50 ([29]; read-out: pGI50 (converted)): 1.86 µM
- CC50 [29, 37]: 7.24 µM
- TGI ([29]; read-out: pTGI (converted)): 3.63 µM
- GI50 ([30]; read-out: GI50): 1.66 µM
- TGI ([30]; read-out: TGI): 3.36 µM
- GI50 ([30]; read-out: pGI50 (converted)): 1.66 µM
- TGI ([30]; read-out: pTGI (converted)): 3.39 µM
- GI50 ([31]; read-out: GI50): 1.71 µM
- CC50 [31, 36]: 6.54 µM
- TGI ([31]; read-out: TGI): 3.34 µM
- GI50 ([31]; read-out: pGI50 (converted)): 1.7 µM
- CC50 [31, 37]: 6.61 µM
- TGI ([31]; read-out: pTGI (converted)): 3.31 µM
- Activity [32]: 89%
- Activity [33]: 83%
- GI50 ([34]; read-out: GI50): 1.87 µM
- CC50 [34, 36]: 8.04 µM
- TGI ([34]; read-out: TGI): 3.88 µM
- GI50 ([34]; read-out: pGI50 (converted)): 1.86 µM
- CC50 [34, 37]: 8.13 µM
- TGI ([34]; read-out: pTGI (converted)): 3.89 µM
- GI50 ([35]; read-out: GI50): 15.8 µM
- CC50 [35, 36]: 55.5 µM
- TGI ([35]; read-out: TGI): 29.6 µM
- GI50 ([35]; read-out: pGI50 (converted)): 15.8 µM
- CC50 [35, 37]: 55 µM
- TGI ([35]; read-out: pTGI (converted)): 29.5 µM
